The subject of this data set is CCRIS mutagenicity, Ames/micronucleus/aberration tests. The data set can be described thus: CCRIS mutagenicity studies.
Where [1] appears, read: Test System: AMES SALMONELLA TYPHIMURIUM, Strain/Indicator: TA100, Metabolic Activation: RAT, LIVER, S-9, AROCLOR 1254, Method: STANDARD PLATE.
The mark [2] stands for this setting: Test System: AMES SALMONELLA TYPHIMURIUM, Strain/Indicator: TA98, Metabolic Activation: NONE, Method: STANDARD PLATE.
Where [3] appears, read: Test System: AMES SALMONELLA TYPHIMURIUM, Strain/Indicator: TA100, Metabolic Activation: NONE, Method: STANDARD PLATE.

Calls of active or inactive are those of the source. No rule for the calls is given here.

Regarding `COc1ccccc1[N+](=O)[O-]`, the mutagenic call (End Point: IN VITRO CHROMOSOMAL ABERRATIONS, Test System: CHINESE HAMSTER OVARY CELLS, Metabolic Activation: RAT, LIVER, S-9, AROCLOR 1254) was “active; positive; precipitation occurred at all doses”; the mutagenic call (End Point: IN VITRO CHROMOSOMAL ABERRATIONS, Test System: CHL CELLS, Metabolic Activation: RAT, LIVER, S-9, SODIUM PHENOBARBITAL AND 5,6-BENZOFLAVONE) is “active; positive (structural changes)”; the mutagenic call (Test System: AMES SALMONELLA TYPHIMURIUM, Strain/Indicator: TA97, Metabolic Activation: HAMSTER LIVER S-9, AROCLOR 1254 (10%), Method: PREINCUBATION) is “inactive; negative”; the mutagenic call (Test System: AMES SALMONELLA TYPHIMURIUM, Strain/Indicator: TA97, Metabolic Activation: NONE, Method: PREINCUBATION) was “inactive; negative”; the mutagenic call (Test System: AMES SALMONELLA TYPHIMURIUM, Strain/Indicator: TA97, Metabolic Activation: RAT LIVER S-9, AROCLOR 1254 (10%), Method: PREINCUBATION) was “inactive; negative”; the mutagenic call (Test System: AMES SALMONELLA TYPHIMURIUM, Strain/Indicator: TA98, Metabolic Activation: HAMSTER LIVER S-9, AROCLOR 1254 (10%), Method: PREINCUBATION) is “inactive; negative”. In addition, the mutagenic call (Test System: AMES SALMONELLA TYPHIMURIUM, Strain/Indicator: TA98, Metabolic Activation: RAT LIVER S-9, AROCLOR 1254 (10%), Method: PREINCUBATION) was “inactive; negative”; the mutagenic call (Test System: AMES SALMONELLA TYPHIMURIUM, Strain/Indicator: TA98, Metabolic Activation: RAT LIVER S-9, PHENOBARBITAL AND BETA-NAPHTHOFLAVONE, Method: PREINCUBATION) is “inactive; negative”; the mutagenic call (Test System: AMES SALMONELLA TYPHIMURIUM, Strain/Indicator: TA98, Metabolic Activation: RAT, LIVER, S-9, KANECHLOR 500, Method: PREINCUBATION) was “inactive; negative”; the mutagenic call (Test System: AMES SALMONELLA TYPHIMURIUM, Strain/Indicator: TA100, Metabolic Activation: HAMSTER LIVER S-9, AROCLOR 1254 (10%), Method: PREINCUBATION) was “active; positive”; the mutagenic call (Test System: AMES SALMONELLA TYPHIMURIUM, Strain/Indicator: TA100, Metabolic Activation: HAMSTER, LIVER, S-9, AROCLOR 1254, FLAVIN MONONUCLEOTIDE, Method: PREINCUBATION) is “inactive; negative”; the mutagenic call (Test System: AMES SALMONELLA TYPHIMURIUM, Strain/Indicator: TA100, Metabolic Activation: HAMSTER, LIVER, S-9, AROCLOR 1254, Method: PREINCUBATION) was “inactive; negative”. Moreover, the mutagenic call is “active; positive” (Test System: AMES SALMONELLA TYPHIMURIUM, Strain/Indicator: TA100, Metabolic Activation: RAT LIVER S-9, AROCLOR 1254 (10%), Method: PREINCUBATION); “active; positive” (Test System: AMES SALMONELLA TYPHIMURIUM, Strain/Indicator: TA100, Metabolic Activation: RAT LIVER S-9, PHENOBARBITAL AND BETA-NAPHTHOFLAVONE, Method: PREINCUBATION); “inactive; negative” (Test System: AMES SALMONELLA TYPHIMURIUM, Strain/Indicator: TA100, Metabolic Activation: RAT, LIVER, S-9, AROCLOR 1254, FLAVIN MONONUCLEOTIDE, Method: PREINCUBATION); “active; positive” under setting [1]; “active; positive” (Test System: AMES SALMONELLA TYPHIMURIUM, Strain/Indicator: TA100, Metabolic Activation: RAT, LIVER, S-9, KANECHLOR 500, Method: PREINCUBATION); “inactive; negative” (Test System: AMES SALMONELLA TYPHIMURIUM, Strain/Indicator: TA1535, Metabolic Activation: HAMSTER LIVER S-9, AROCLOR 1254 (10%), Method: PREINCUBATION). The mutagenic call reads like this: (Test System: AMES SALMONELLA TYPHIMURIUM, Strain/Indicator: TA1535, Metabolic Activation: NONE, Method: PREINCUBATION) “inactive; negative”; (Test System: AMES SALMONELLA TYPHIMURIUM, Strain/Indicator: TA1535, Metabolic Activation: RAT LIVER S-9, AROCLOR 1254 (10%), Method: PREINCUBATION) “inactive; negative”; (Test System: AMES SALMONELLA TYPHIMURIUM, Strain/Indicator: TA1535, Metabolic Activation: RAT LIVER S-9, PHENOBARBITAL AND BETA-NAPHTHOFLAVONE, Method: PREINCUBATION) “inactive; negative”; (Test System: AMES SALMONELLA TYPHIMURIUM, Strain/Indicator: TA1537, Metabolic Activation: HAMSTER LIVER S-9, AROCLOR 1254 (10%), Method: PREINCUBATION) “inactive; negative”; (Test System: AMES SALMONELLA TYPHIMURIUM, Strain/Indicator: TA1537, Metabolic Activation: NONE, Method: PREINCUBATION) “inactive; negative”; (Test System: AMES SALMONELLA TYPHIMURIUM, Strain/Indicator: TA1537, Metabolic Activation: RAT LIVER S-9, AROCLOR 1254 (10%), Method: PREINCUBATION) “inactive; negative”. In addition, the mutagenic call reads like this: (Test System: AMES SALMONELLA TYPHIMURIUM, Strain/Indicator: TA1537, Metabolic Activation: RAT LIVER S-9, PHENOBARBITAL AND BETA-NAPHTHOFLAVONE, Method: PREINCUBATION) “inactive; negative”; (Test System: AMES SALMONELLA TYPHIMURIUM, Strain/Indicator: TA1538, Metabolic Activation: NONE, Method: PREINCUBATION) “active; positive”; (Test System: E.COLI, Strain/Indicator: WP2UVRA, Metabolic Activation: NONE, Method: PREINCUBATION) “inactive; negative”; (Test System: E.COLI, Strain/Indicator: WP2UVRA, Metabolic Activation: RAT LIVER S-9, PHENOBARBITAL AND BETA-NAPHTHOFLAVONE, Method: PREINCUBATION) “inactive; negative”.

With `C=CCCCCCCCCCCCC`, the mutagenic call by setting is: under setting [2], “inactive; negative”; (Test System: AMES SALMONELLA TYPHIMURIUM, Strain/Indicator: TA98, Metabolic Activation: RAT, LIVER, S-9, AROCLOR, Method: STANDARD PLATE) “inactive; negative”; under setting [3], “inactive; negative”; (Test System: AMES SALMONELLA TYPHIMURIUM, Strain/Indicator: TA100, Metabolic Activation: RAT, LIVER, S-9, AROCLOR, Method: STANDARD PLATE) “inactive; negative”; (Test System: AMES SALMONELLA TYPHIMURIUM, Strain/Indicator: UTH8413, Metabolic Activation: NONE, Method: STANDARD PLATE) “inactive; negative”; (Test System: AMES SALMONELLA TYPHIMURIUM, Strain/Indicator: UTH8413, Metabolic Activation: RAT, LIVER, S-9, AROCLOR, Method: STANDARD PLATE) “inactive; negative”. Further, the mutagenic call is, setting by setting: (Test System: AMES SALMONELLA TYPHIMURIUM, Strain/Indicator: UTH8414, Metabolic Activation: NONE, Method: STANDARD PLATE) “inactive; negative”; (Test System: AMES SALMONELLA TYPHIMURIUM, Strain/Indicator: UTH8414, Metabolic Activation: RAT, LIVER, S-9, AROCLOR, Method: STANDARD PLATE) “inactive; negative”.

Consider `O=C(O)c1cc(Cl)cc2cccnc12`, for which the mutagenic call is “inactive; negative” under setting [2]; “active; positive” (Test System: AMES SALMONELLA TYPHIMURIUM, Strain/Indicator: TA98, Metabolic Activation: RAT, LIVER, S-9, AROCLOR 1254, Method: STANDARD PLATE); “inactive; negative” under setting [3]; “active; positive” under setting [1]; “inactive; negative” (Test System: AMES SALMONELLA TYPHIMURIUM, Strain/Indicator: TA1535, Metabolic Activation: NONE, Method: STANDARD PLATE); “inactive; negative” (Test System: AMES SALMONELLA TYPHIMURIUM, Strain/Indicator: TA1535, Metabolic Activation: RAT, LIVER, S-9, AROCLOR 1254, Method: STANDARD PLATE). In addition, the mutagenic call is “inactive; negative” (Test System: AMES SALMONELLA TYPHIMURIUM, Strain/Indicator: TA1537, Metabolic Activation: NONE, Method: STANDARD PLATE) and “active; positive” (Test System: AMES SALMONELLA TYPHIMURIUM, Strain/Indicator: TA1537, Metabolic Activation: RAT, LIVER, S-9, AROCLOR 1254, Method: STANDARD PLATE).

For `O=[N+]([O-])c1ccc(OCC2CO2)cc1` (stereo not given), the mutagenic call was “inactive; negative” (Test System: AMES SALMONELLA TYPHIMURIUM, Strain/Indicator: TA98, Metabolic Activation: NONE, Method: PREINCUBATION); “active; positive” (Test System: AMES SALMONELLA TYPHIMURIUM, Strain/Indicator: TA100, Metabolic Activation: NONE, Method: PREINCUBATION); “active; positive” under setting [3]; “active; positive” (Test System: AMES SALMONELLA TYPHIMURIUM, Strain/Indicator: TA104, Metabolic Activation: NONE, Method: STANDARD PLATE); “active; positive” (Test System: AMES SALMONELLA TYPHIMURIUM, Strain/Indicator: TA4001, Metabolic Activation: NONE, Method: STANDARD PLATE); “active; positive” (Test System: AMES SALMONELLA TYPHIMURIUM, Strain/Indicator: TA4006, Metabolic Activation: NONE, Method: STANDARD PLATE).

Source of the values: PubChem BioAssay AID1259407 (Chemical Carcinogenesis Research Information System (CCRIS), 2018).
